Measured values as given in paper PMC6563844, “Identification and in vivo Efficacy Assessment of Approved Orally Bioavailable Human Host Protein-Targeting Drugs With Broad Anti-influenza A Activity” (Frontiers in Immunology, 2019).
Read-outs that look alike come from different tables or passages of the source.

Experiments:
[1] = system: H1N1 A/Puerto Rico/8/34 (PR8)
PR8 [2] = assay: microbe, parasite or virus in culture; format: cell-based, influenza A virus
[3] = system: pH1N1 (H1N1pdm09 A/Mexico/InDRE4487/2009); assay: microbe, parasite or virus in culture; format: cell-based, influenza A virus
[4] = system: H1N1 and H3N2 influenza A viruses (PR8, H1N1pdm09, H3N2); assay: microbe, parasite or virus in culture; format: cell-based
PR8 [5] = system: PR8; design: species or system C57BL/6 mice; conditions: mouse, in vivo, po
[6] = system: H3N2 (A/Victoria/36/2011); assay: microbe, parasite or virus in culture; format: cell-based, influenza A virus
[7] = system: influenza strains A/Puerto Rico/8/34 (PR8), A/Mexico/InDRE4487/2009 (H1N1pdm09), A/Victoria/36/2011 (H3N2); format: cell-based, influenza A virus
MTT assay (cytotoxicity) = conditions: dog
Procedure: (§1) The MTT assay was performed according to the manufacturer's protocol (Thermo Fisher Vybrant MTT Cell Proliferation Assay Kit). Briefly, MDCK cells grown in a 96-well-plate were treated with the respective drugs at 5-fold descending concentrations starting at 500 mM or left untreated. After 24 h, medium was replaced by PBS containing 1 mM MTT. After incubation for 4 h at 37°C, supernatants were removed, mixed with DMSO and further incubated for 10 min at 37°C before absorption was measured at 562 nm using a PHOmo Microplate reader. To calculate the relative cytotoxicity, the absorbance of untreated cells was set to 1. The 50% cytotoxic concentration (CC50) was calculated using GraphPad 6, and the selectivity index (SI) represents the ratio of CC50 to EC50.

[8] = system: H1N1pdm09 (A/Mexico/InDRE4487/2009); design: species or system ferrets (mustela putorius furo); conditions: in vivo
MDCK cells = assay: MTT assay (cytotoxicity); conditions: MDCK cells, 24 h, MTT
Procedure: as §1

in vitro = conditions: dog
Procedure: as §1

[9] = read-out: EC50 (50% effective dose)

With `Nc1ncnc2c1ncn2[C@@H]1O[C@H](COP(=O)(O)OP(=O)(O)OP(=O)(O)O)[C@@H](O)[C@H]1O` [Adenosine triphosphate] the Inhibitory effect [1] was “No inhibition” and the “antiviral activity in initial screen” value [1] was “no antiviral activity”.
In the case of `NCCCC(O)(P(=O)(O)O)P(=O)(O)O` [Alendronate], the Inhibitory effect [1] is reported as “toxic” and the antiviral activity [1] is reported as “no antiviral activity”.
With `N=C(N)NC(=O)c1nc(Cl)c(N)nc1N` [Amiloride] the Inhibitory effect [1] was “No inhibition” and the “antiviral activity in initial screen” value [1] was “no antiviral activity”.
For `CN(C)/N=N/c1[nH]cnc1C(N)=O` [Dacarbazine], the Inhibitory effect [1] was “no inhibition” and the “antiviral activity in initial screen” value [1] was “no antiviral activity”.
For `COc1ccc2c(c1)[C@]13CCCC[C@@H]1[C@H](C2)N(C)CC3` [Dextromethorphan], the EC50 (PR8 [2]; Influenza A virus, PR8, MDCK) was 48.7 ± 2.3 µM, the EC50 ([3]; Influenza A virus, MDCK, pH1N1) was 50.8 ± 3.3 µM and the EC50 [4, 9] was 5 to 50 µM. The “effect on lung viral titers” value (PR8 [5]) was “more variable but significant reduction”, the EC50 ([6]; Influenza A virus, H3N2, MDCK) was 51.7 ± 4.2 µM and the “reduction of viral titers” value [7] was “around 1,000 fold”. The “Inhibitory effect (fold inhibition)” value [1] was >10-fold inhibition, the “antiviral activity in initial screen” value [1] was “able to inhibit infection at doses above 50 μM without causing toxicity” and the CC50 at 24 h (MTT assay (cytotoxicity)) was 3546 ± 11.1 µM. For the same compound, the clinical score [8] was “significantly lower peak score”, the weight loss [8] was under 10% and the body weight effect ([8]; po) was “slightly increase the weight loss”. For the same compound, the “effect on nasal wash titers” value ([8]; po) was “no effect”.
In the case of `CC(O)(P(=O)(O)O)P(=O)(O)O` [Etidronic Acid], the Inhibitory effect [1] is reported as “No inhibition” and the “antiviral activity in initial screen” value [1] is reported as “no antiviral activity”.
In the case of `O=[N+]([O-])[O-].O=[N+]([O-])[O-].O=[N+]([O-])[O-].[Ga+3]` [Gallium nitrate], the EC50 (PR8 [2]; read-out: EC50) is reported as 54.8 ± 2.2 µM, the EC50 ([3]; pH1N1) is reported as 55.3 ± 2.9 µM and the “effect on lung viral titers” value (PR8 [5]) is reported as “no significant effect”. For the same compound, the EC50 ([6]; read-out: EC50) was 5.7 ± 0.9 µM, the “reduction of viral titers” value [7] was “around 10 fold” and the “Inhibitory effect (fold inhibition)” value [1] was >10-fold inhibition. For the same compound, the “antiviral activity in initial screen” value [1] was “able to inhibit infection at doses above 50 μM without causing toxicity” and the CC50 (MDCK cells) was 716 ± 116 µM.
In the case of `CCCCC1=NC2(CCCC2)C(=O)N1Cc1ccc(-c2ccccc2-c2nnn[nH]2)cc1` [Irbesartan], the Inhibitory effect [1] is reported as “toxic”, the antiviral activity [1] is reported as “no antiviral activity” and the “toxicity in the screen” value [1] is reported as “pronounced toxicity”.
In the case of `CC(C)NCC(O)c1ccc(O)c(O)c1` (centres unmarked) [Isoproterenol], the Inhibitory effect [1] is reported as “toxic”, the antiviral activity [1] is reported as “no antiviral activity” and the “toxicity in the screen” value [1] is reported as “pronounced toxicity”.
With `CN1CCC(=C2c3ccccc3CC(=O)c3sccc32)CC1` [Ketotifen] the EC50 (PR8 [2]; Influenza A virus, PR8, MDCK) was 5.9 ± 0.2 µM, the EC50 ([3]; Influenza A virus, MDCK, pH1N1) was 33.7 ± 1.3 µM and the EC50 [4, 9] was 5 to 50 µM. The EC50 ([6]; Influenza A virus, H3N2, MDCK) was 48.5 ± 2 µM, the “reduction of viral titers” value [7] was 100 fold and the “Inhibitory effect (fold inhibition)” value [1] was >10-fold inhibition. For the same compound, the “antiviral activity in initial screen” value [1] was “able to inhibit infection at doses above 50 μM without causing toxicity” and the CC50 at 24 h (in vitro) was 291 ± 14.8 µM.
For `N[C@@H](CCC(=O)O)C(=O)O` [L-Glutamic Acid], the Inhibitory effect [1] was “No inhibition” and the “antiviral activity in initial screen” value [1] was “no antiviral activity”.
In the case of `CC(=O)N[C@@H]1[C@@H](O)[C@H](O)[C@@H](CO)O[C@@H]1O` [N-Acetyl-D-Glucosamine], the Inhibitory effect [1] is reported as “No inhibition” and the “antiviral activity in initial screen” value [1] is reported as “no antiviral activity”.
For `O=C1CC[C@@]2(O)[C@H]3Cc4ccc(O)c5c4[C@@]2(CCN3CC2CC2)[C@H]1O5` [Naltrexone], the EC50 (PR8 [2]; Influenza A virus, PR8, MDCK) was 4.7 ± 0.2 µM, the EC50 ([3]; Influenza A virus, MDCK, pH1N1) was 48 ± 3.2 µM and the EC50 [4] was 5 to 50 µM. For the same compound, the “effect on lung viral titers” value (PR8 [5]) was “no significant effect”, the inhibition efficiency [6] was “less efficient” and the EC50 ([6]; Influenza A virus, H3N2, MDCK) was over 500 µM. The “reduction of viral titers” value [7] was 100 fold, the “Inhibitory effect (fold inhibition)” value [1] was >10-fold inhibition and the “antiviral activity in initial screen” value [1] was “able to inhibit infection at doses above 50 μM without causing toxicity”. The CC50 at 24 h (MTT assay (cytotoxicity)) was 5230 ± 227 µM.
For `CCOC(=O)C1=C[C@@H](OC(CC)CC)[C@H](NC(C)=O)[C@@H](N)C1` [Oseltamivir phosphate, oseltamivir phosphate], the “reduction of lung titers” value (PR8 [5]) was 28 fold, the clinical score [8] was “minimal clinical score peaking on day 3” and the “reduction in nasal wash titers” value ([8]; po) was 10 fold.
With `CCOC(=O)C1=C[C@@H](OC(CC)CC)[C@H](NC(C)=O)[C@@H](N)C1` [Oseltamivir] the EC50 (PR8 [2]; Influenza A virus, PR8, MDCK) was 0.005 ± 0.0004 µM, the EC50 ([3]; Influenza A virus, MDCK, pH1N1) was 0.2 ± 0.05 µM and the EC50 ([6]; Influenza A virus, H3N2, MDCK) was 0.05 ± 0.003 µM. It also gave a CC50 at 24 h (in vitro) of 470 ± 12.3 µM.
For `O=C1CCC(N2C(=O)c3ccccc3C2=O)C(=O)N1` (centres unmarked) [Thalidomide], the Inhibitory effect [1] was “No inhibition” and the “antiviral activity in initial screen” value [1] was “no antiviral activity”.
For `CC[C@]1(O)C[C@@H]2CN(CCc3c([nH]c4ccccc34)[C@@](C(=O)OC)(c3cc4c(cc3OC)N(C)[C@H]3[C@@](O)(C(=O)OC)[C@H](OC(C)=O)[C@]5(CC)C=CCN6CC[C@]43[C@@H]65)C2)C1` [Vinblastine], the Inhibitory effect [1] was “toxic”, the antiviral activity [1] was “no antiviral activity” and the “toxicity in the screen” value [1] was “pronounced toxicity”.
In the case of `CCC(CC)O[C@@H]1C=C(C(=O)O)C[C@H](N)[C@H]1NC(C)=O` [oseltamivir carboxylate], the EC50 (PR8 [2]; read-out: EC50) is reported as 0.005 µM, the EC50 [3] is reported as about 0.2 µM and the “concentration completely inhibiting replication” value [7] is reported as “higher than 5 μM”.
